Test results reported in BindingDB's records for patent US20240083908 (Modulus Discovery, 2024).

Target: Poly(ADP-ribose) glycohydrolase (Homo sapiens, UniProt Q86W56)
Test: PARG Activity Assay
Procedure: PARG Activity Assay was performed in Streptavidin-coated 96-well plates. […] The substrate solution was added to the 96-well plate at the volume of 200 micro liter per well and incubated for 3 hours at room temperature. After the incubation, the substrate solution was discarded and assay plate was washed 4 times with 220 micro liter of PBS containing 0.1% Tween20 (PBST). […] The diluted enzyme solution was pre-incubated with compounds for 1 hour at room temperature in a 96-well plate and transferred 100 micro liter per well to the poly (ADP-ribose) substrate-coated assay plate. The plate was incubated for 1 hour at 25° C. and then washed 4 times with 220 micro liters of PBST. For the detection of non-digested poly (ADP-ribose) polymer on the plate, mouse anti-poly (ADP-ribose) antibody diluted with 0.2% BSA containing PBS was added 100 micro liters per well and incubated 1 hour at room temperature. Plate was washed 4 times with TBST and 100 micro liter of HRP-labeled anti-mouse Ig antibody was added to the wells. Plate was incubated for 30 minutes at room temperature and then washed 4 times with PBST. For the detection 100 micro liters of TMB substrate solution was added to the wells. After sufficient color development, reaction was stopped by addition of 50 micro liter of 0.2 M […].

Poly(ADP-ribose) glycohydrolase, sequence (Q86W56 whole entry): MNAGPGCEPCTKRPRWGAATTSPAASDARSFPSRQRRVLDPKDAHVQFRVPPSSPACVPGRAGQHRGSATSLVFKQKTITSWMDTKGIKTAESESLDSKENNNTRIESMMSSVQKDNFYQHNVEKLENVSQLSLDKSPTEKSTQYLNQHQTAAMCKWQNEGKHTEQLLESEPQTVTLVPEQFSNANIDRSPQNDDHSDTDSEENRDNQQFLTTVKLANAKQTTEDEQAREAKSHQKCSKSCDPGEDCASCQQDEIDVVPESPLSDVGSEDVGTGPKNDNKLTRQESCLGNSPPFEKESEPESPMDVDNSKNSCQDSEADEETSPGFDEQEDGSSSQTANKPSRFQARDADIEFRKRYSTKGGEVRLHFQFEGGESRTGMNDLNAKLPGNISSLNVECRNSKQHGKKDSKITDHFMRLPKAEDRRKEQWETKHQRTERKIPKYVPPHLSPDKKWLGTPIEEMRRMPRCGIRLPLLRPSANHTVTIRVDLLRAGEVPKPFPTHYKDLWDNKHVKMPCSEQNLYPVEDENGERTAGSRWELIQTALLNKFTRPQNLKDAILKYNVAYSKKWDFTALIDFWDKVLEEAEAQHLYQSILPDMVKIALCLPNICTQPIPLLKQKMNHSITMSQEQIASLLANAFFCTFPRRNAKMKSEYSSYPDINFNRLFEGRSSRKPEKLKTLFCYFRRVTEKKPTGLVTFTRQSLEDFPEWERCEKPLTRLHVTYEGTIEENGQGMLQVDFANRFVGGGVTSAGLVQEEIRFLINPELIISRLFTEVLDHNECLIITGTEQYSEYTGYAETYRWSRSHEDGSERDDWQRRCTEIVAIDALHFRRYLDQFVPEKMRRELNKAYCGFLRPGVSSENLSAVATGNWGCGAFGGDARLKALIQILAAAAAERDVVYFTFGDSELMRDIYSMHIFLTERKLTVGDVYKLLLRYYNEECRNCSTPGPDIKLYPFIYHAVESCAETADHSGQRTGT

Row | Structure (SMILES) | IC50 [nM]
1 | Cn1cc(Cn2c(=O)c3cc(S(=O)(=O)NC4(C)CC4)sc3n(Cc3ccc(OC4CC4)cc3)c2=O)cn1 [US20240083908, Example 68] | 63
2 | CNCCN(C)c1ccc(Cn2c(=O)n(Cc3cnn(C)c3)c(=O)c3cc(S(=O)(=O)NC4(C)CC4)sc32)cc1F [US20240083908, Example 77] | 70
3 | Cc1ncc(Cn2c(=O)c3cc(S(=O)(=O)NC4(C)CC4)sc3n(Cc3cc(C(C)C)nn3C)c2=O)s1 [US20240083908, Example 107] | 70
4 | Cn1cc(Cn2c(=O)c3cc(S(=O)(=O)NC4(C)CC4)sc3n(Cc3cnn(CCO)c3)c2=O)cn1 [US20240083908, Example 57] | 20
5 | Cc1ncc(Cn2c(=O)[nH]c3sc(S(=O)(=O)NC4(C)CC4)cc3c2=O)s1 [US20240083908, Example 1] | 22900
6 | Cn1cc(Cn2c(=O)c3cc(S(=O)(=O)NC4(C#N)CC4)sc3n(Cc3ccc4c(c3)COC4)c2=O)cn1 [US20240083908, Example 100] | 42
7 | Cn1cc(Cn2c(=O)c3cc(S(=O)(=O)NC4(C)CC4)sc3n(Cc3ccc4cncn4c3)c2=O)cn1 [US20240083908, Example 40] | 4.1
8 | CN(C)CCN(C)c1ccc(Cn2c(=O)n(Cc3cnn(C)c3)c(=O)c3cc(S(=O)(=O)NC4(C)CC4)sc32)cc1F [US20240083908, Example 78] | 111
9 | COc1cc2c(cc1Cn1c(=O)n(Cc3cnn(C)c3)c(=O)c3cc(S(=O)(=O)NC4(C)CC4)sc31)COC2 [US20240083908, Example 111] | 120
10 | CC(=O)N1CCC(n2c(=O)n(Cc3cnn(C)c3)c(=O)c3cc(S(=O)(=O)NC4(C)CC4)sc32)CC1 [US20240083908, Example 92] | 230
11 | Cn1cc(Cn2c(=O)c3cc(S(=O)(=O)NC4(C)CC4)sc3n(Cc3ccc4cn[nH]c4c3)c2=O)cn1 [US20240083908, Example 36] | 5.3
12 | Cn1cc(Cn2c(=O)c3cc(S(=O)(=O)NC4(C)CC4)sc3n(CC3CCN(CCO)CC3)c2=O)cn1 [US20240083908, Example 99] | 500
13 | Cc1nc(C)c(Cn2c(=O)n(Cc3cnn(C)c3)c(=O)c3cc(S(=O)(=O)NC4(C)CC4)sc32)s1 [US20240083908, Example 25] | 13
14 | COc1cc(Cn2c(=O)n(Cc3cnn(C)c3)c(=O)c3cc(S(=O)(=O)NC4(C)CC4)sc32)ccc1F [US20240083908, Example 121] | 20
15 | Cn1cc(Cn2c(=O)c3cc(S(=O)(=O)NC4(C)CC4)sc3n(Cc3ccc4c(c3)COC4)c2=O)cn1 [US20240083908, Example 28] | 10
16 | Cn1cc(Cn2c(=O)c3cc(S(=O)(=O)NC4(C)CC4)sc3n(-c3ccc(F)cc3)c2=O)cn1 [US20240083908, Example 136] | 860
17 | Cc1nc(C)c(Cn2c(=O)n(Cc3cnn(CCO)c3)c(=O)c3cc(S(=O)(=O)NC4(C)CC4)sc32)s1 [US20240083908, Example 104b] | 120
18 | Cc1nc(C)c(Cn2c(=O)n(Cc3ccc(Cl)nc3)c(=O)c3cc(S(=O)(=O)NC4(C)CC4)sc32)s1 [US20240083908, Example 105] | 50
19 | Cn1cc(Cn2c(=O)c3cc(S(=O)(=O)NC4(C)CC4)sc3n(Cc3cc4c(cc3F)COC4)c2=O)cn1 [US20240083908, Example 110] | 17
20 | COc1ccc(Cn2c(=O)n(Cc3cnn(C)c3)c(=O)c3cc(S(=O)(=O)NC4(C)CC4)sc32)cc1 [US20240083908, Example 50] | 40
21 | COCc1cc2cc(Cn3c(=O)n(Cc4cnn(C)c4)c(=O)c4cc(S(=O)(=O)NC5(C)CC5)sc43)ccc2o1 [US20240083908, Example 63] | 20
22 | Cn1cc(Cn2c(=O)c3cc(S(=O)(=O)NC4(C)CC4)sc3n(Cc3ccc4oc(CO)cc4c3)c2=O)cn1 [US20240083908, Example 64] | 15
23 | CC1(NS(=O)(=O)c2cc3c(=O)n(Cc4nc5c(s4)CCCC5)c(=O)n(Cc4ccc5c(c4)COC5)c3s2)CC1 [US20240083908, Example 106] | 990
24 | Cn1cc(Cn2c(=O)c3cc(S(=O)(=O)NC4(C)CC4)sc3n(Cc3ccc4c(c3)CC(=O)N4)c2=O)cn1 [US20240083908, Example 130] | 3
25 | Cc1ncc(Cn2c(=O)c3cc(S(=O)(=O)NC4(C)CC4)sc3n(CCCN(C)C)c2=O)s1 [US20240083908, Example 8] | 630
26 | CN1CCC(Cn2c(=O)n(Cc3cnn(C)c3)c(=O)c3cc(S(=O)(=O)NC4(C)CC4)sc32)CC1 [US20240083908, Example 98] | 5940
27 | Cn1cc(Cn2c(=O)c3cc(S(=O)(=O)NC4(C)CC4)sc3n(C3CCNCC3)c2=O)cn1 [US20240083908, Example 91] | 270
28 | Cn1cc(Cn2c(=O)c3cc(S(=O)(=O)NC4(C)CC4)sc3n(Cc3cnc4c(c3)COC4)c2=O)cn1 [US20240083908, Example 108] | 4
29 | CNCCC(=O)N1CCC(n2c(=O)n(Cc3cnn(C)c3)c(=O)c3cc(S(=O)(=O)NC4(C)CC4)sc32)CC1 [US20240083908, Example 95] | 320
